Like-named read-outs stand apart in the source and are kept apart here.
Tests used:
Smn protein = Smn protein assay in cultured cells (SMN HTRF); type: cell-based, human; conditions: for EC1.5x (concentration giving 1.5-fold Smn protein increase): SMA Type 1 patient fibroblast cells (GM03813), 7-point concentration curve, SMN HTRF, concentration producing 1.5 times Smn protein vs DMSO vehicle control, read-out: EC1.5x for Smn protein expression
How it was run: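 Lysates in RIPA with protease inhibitors are incubated overnight at room temperature with HTRF anti-SMN antibodies. EC1.5x is derived from fold increase in ΔF over vehicle.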

[1] = test system: SMN2 minigene (full length SMN2 minigene mRNA containing SMN2 exon 7); experiment: SMN2 minigene mRNA splicing RT-qPCR assay in cultured cells; type: cell-based, human; conditions: Homo sapiens, HEK293-H, read-out: EC1.5x for production of full length SMN2 mRNA
How it was run: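 Read-out: full-length (exon 7-included) SMN2 minigene mRNA by multiplex RT-qPCR with GAPDH, efficiency-corrected (1+E)^−Ct, GAPDH-normalized and divided by vehicle. Stably transfected HEK293H cells, 24 h compound exposure, duplicates per concentration. Value is EC1.5x, reported as star ranges.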

[2] = SMA patient fibroblast cells, 48 hours, 7-point concentration data, fold increase relative to vehicle control (SMN HTRF)
[3] = HEK293H cells stably transfected with SMN2-A minigene, 24 hours, 7-point concentration curve, 1.5-fold relative to vehicle-treated cells

Structure (SMILES)	melting point [°C]	EC1.5x (concentration giving 1.5-fold Smn protein increase) (Smn protein; 48 hours) [nM]	maximum fold (Fold) increase of Smn protein (Smn protein; [2])	EC (1.5-fold) [1, 3] [µM]	maximum fold (Fold) increase of Smn protein (Smn protein)	EC (1.5-fold) ([1]; 24 h) [µM]
Cc1cn2cc(-c3cc4ccc(CCNC(C)C)cc4oc3=O)nc2c(C)n1 [Compound 865, 3-(6,8-dimethylimidazo[1,2-a]pyrazin-2-yl)-7-[2-(propan-2-ylamino)ethyl]-2H-chromen-2-one]	192 to 197	1000 to 3000	**** (fold increase between >1.5 and ≤1.65)	< 0.1		
C[C@@H]1CN(c2ccc3cc(-c4cn5ccsc5n4)c(=O)oc3c2)C[C@H](C)N1 [Compound 167, 7-[(3R,5S)-3,5-dimethylpiperazin-1-yl]-3-(imidazo[2,1-b][1,3]thiazol-6-yl)-2H-chromen-2-one]	263 to 265		** (fold increase between >1.2 and ≤1.35)	0.3 to 1		
COc1ccc(-c2cc3ccc(N4CCNCC4)cc3oc2=O)cc1C [Compound 541, 3-(4-methoxy-3-methylphenyl)-7-(piperazin-1-yl)-2H-chromen-2-one]	171 to 173		* (maximum fold increase of ≤1.2)	1 to 3		
O=c1oc2cc(N3CCNCC3)ccc2cc1-c1cccnc1C(F)(F)F [Cpd 124, 7-(piperazin-1-yl)-3-[2-(trifluoromethyl)pyridin-3-yl]-2H-chromen-2-one]	197 to 200		** (fold increase between >1.2 and ≤1.35)	0.3 to 1		
Cc1ccc2cc(-c3cc4ccc(N5CCNCC5)cc4oc3=O)cn2n1 [Cpd 641, 3-(2-methylpyrrolo[1,2-b]pyridazin-6-yl)-7-(piperazin-1-yl)-2H-chromen-2-one]	213 to 216				* (key: *: maximum fold increase of ≤1.2; **: fold increase between >1.2 and ≤1.35; ***: fold increase between >1.35 and ≤1.5; ****: fold increase between >1.5 and ≤1.65; *****: fold increase >1.65)	0.3 to 1
Cc1cn2cc(-c3cc4ccc(CCCN(CCO)CCO)cc4oc3=O)nc2c(C)n1 [Compound 885, 7-{3-[bis(2-hydroxyethyl)amino]propyl}-3-(6,8-dimethylimidazo[1,2-a]pyrazin-2-yl)-2H-chromen-2-one]	158 to 162	300 to 1000	***** (fold increase >1.65)	0.1 to 0.3		
Cc1cn2cc(-c3cc4ccc(N5C[C@H]6CCCN[C@H]6C5)cc4oc3=O)nc2c(C)n1 [Compound 655, 3-(6,8-dimethylimidazo[1,2-a]pyrazin-2-yl)-7-[(4aR,7aR)-octahydro-6H-pyrrolo[3,4-b]pyridin-6-yl]-2H-chromen-2-one]	259 to 269	< 300	**** (fold increase between >1.5 and ≤1.65)	< 0.1		
Cc1cn2cc(-c3cc4ccc(CCN5CCOCC5)cc4oc3=O)nc2c(C)n1 [Compound 886, 3-(6,8-dimethylimidazo[1,2-a]pyrazin-2-yl)-7-[2-(morpholin-4-yl)ethyl]-2H-chromen-2-one]	180 to 184	300 to 1000	***** (fold increase >1.65)	0.3 to 1		
CCN1CCC(c2ccc3cc(-c4ccc5nn(C)cc5c4)c(=O)oc3c2)CC1 [Compound 863, 7-(1-ethylpiperidin-4-yl)-3-(2-methyl-2H-indazol-5-yl)-2H-chromen-2-one]	196 to 198	300 to 1000	***** (fold increase >1.65)	0.1 to 0.3		
Cc1nn2cc(-c3cc4ccc(N5CCN[C@H](C)C5)cc4oc3=O)nc2s1 [Compound 483, 3-(2-methylimidazo[2,1-b][1,3,4]thiadiazol-6-yl)-7-[(3R)-3-methylpiperazin-1-yl]-2H-chromen-2-one]	206 to 210	1000 to 3000	*** (fold increase between >1.35 and ≤1.5)	0.1 to 0.3		
COCCN1CCN(c2ccc3cc(-c4cc5cc(C)nc(C)c5o4)c(=O)oc3c2)CC1 [Compound 799, 3-(5,7-dimethylfuro[2,3-c]pyridin-2-yl)-7-[4-(2-methoxyethyl)piperazin-1-yl]-2H-chromen-2-one]	235 to 237	< 300	**** (fold increase between >1.5 and ≤1.65)	< 0.1		
Cc1ccn2cc(-c3cc4ccc(NC5CCN(C)CC5)cc4oc3=O)nc2c1 [Compound 474, 3-(7-methylimidazo[1,2-a]pyridin-2-yl)-7-[(1-methylpiperidin-4-yl)amino]-2H-chromen-2-one]	224 to 230		* (maximum fold increase of ≤1.2)	1 to 3		
COc1ccc(-c2cc3ccc(N4CCN[C@@H](C)C4)cc3oc2=O)cc1OC [Compound 383, 3-(3,4-dimethoxyphenyl)-7-[(3S)-3-methylpiperazin-1-yl]-2H-chromen-2-one]	140 to 143	1000 to 3000	**** (fold increase between >1.5 and ≤1.65)	0.1 to 0.3		
Cc1nc(Cl)cn2cc(-c3cc4ccc(N5CCN[C@@H](C)C5)cc4oc3=O)nc12 [Compound 713, 3-(6-chloro-8-methylimidazo[1,2-a]pyrazin-2-yl)-7-[(3S)-3-methylpiperazin-1-yl]-2H-chromen-2-one]	235 to 238	< 300	*** (fold increase between >1.35 and ≤1.5)	< 0.1		
Cc1ccn2cc(-c3cc4ccc(N5C[C@@H](C)N[C@@H](C)C5)cc4oc3=O)nc2n1 [Compound 225, 7-[(3R,5S)-3,5-dimethylpiperazin-1-yl]-3-(7-methylimidazo[1,2-a]pyrimidin-2-yl)-2H-chromen-2-one]	246 to 252		*** (fold increase between >1.35 and ≤1.5)	0.3 to 1		
Cc1cn2cc(-c3cc4ccc(N5CCN(C)[C@H](C)C5)cc4oc3=O)ccc2n1 [Compound 661, 7-[(3R)-3,4-dimethylpiperazin-1-yl]-3-(2-methylimidazo[1,2-a]pyridin-6-yl)-2H-chromen-2-one]	206 to 209	< 300	***** (fold increase >1.65)	< 0.1		
Cc1csc(-c2cc3ccc(N4CCN[C@H](C)C4)cc3oc2=O)n1 [Compound 300, 7-[(3R)-3-methylpiperazin-1-yl]-3-(4-methyl-1,3-thiazol-2-yl)-2H-chromen-2-one]	176		* (maximum fold increase of ≤1.2)			1 to 3
COc1ccn2cc(-c3cc4ccc(N5C[C@@H](C)N[C@@H](C)C5)cc4oc3=O)nc2c1 [Compound 432, 7-[(3R,5S)-3,5-dimethylpiperazin-1-yl]-3-(7-methoxyimidazo[1,2-a]pyridin-2-yl)-2H-chromen-2-one]	225 to 230		** (fold increase between >1.2 and ≤1.35)	1 to 3		
C[C@@H]1CN(c2ccc3cc(-c4cn5cc(C6CC6)cc(F)c5n4)c(=O)oc3c2)C[C@H](C)N1 [Compound 497, 3-(6-cyclopropyl-8-fluoroimidazo[1,2-a]pyridin-2-yl)-7-[(3R,5S)-3,5-dimethylpiperazin-1-yl]-2H-chromen-2-one]	257 to 267		* (maximum fold increase of ≤1.2)	0.3 to 1		
Cc1cn2cc(-c3cc4ccc(N5C[C@@H](O)[C@H](N(C)C)C5)cc4oc3=O)cc2c(C)n1 [Compound 734, 7-[(3R,4R)-3-(dimethylamino)-4-hydroxypyrrolidin-1-yl]-3-(1,3-dimethylpyrrolo[1,2-a]pyrazin-7-yl)-2H-chromen-2-one]	173 to 176	< 300	**** (fold increase between >1.5 and ≤1.65)	< 0.1		
CN1CCN(c2ccc3cc(-c4cc5ccccn5n4)c(=O)oc3c2)CC1 [Compound 188, 7-(4-methylpiperazin-1-yl)-3-(pyrazolo[1,5-a]pyridin-2-yl)-2H-chromen-2-one]	235 to 237	3000 to 10000	*** (fold increase between >1.35 and ≤1.5)	0.3 to 1		
CN1CCCN(c2ccc3cc(-c4cn5ccsc5n4)c(=O)oc3c2)CC1 [Compound 203, 3-(imidazo[2,1-b][1,3]thiazol-6-yl)-7-(4-methyl-1,4-diazepan-1-yl)-2H-chromen-2-one]	228 to 231	300 to 1000	**** (fold increase between >1.5 and ≤1.65)	0.1 to 0.3		
